Reference: EP1767211B1, “Pharmaceutical agent containing hyaluronan as an active ingredient” (Glycoscience Laboratories, Inc., priority 2005, dated 2007)

Experiments:
U937 cell [1] = experiment: IL-6 production under LPS stimulation, ELISA; format: cell-based, human; details: LPS 100 ng/ml, HA4 100 ng/ml, 24 hours
Description: (§1) • 2. Cell: U937 cell (human monocyte line), purchased from Dainipon Sumitomo Seiyaku. • 3. Culture medium: RPMI medium (containing 10% FBS). • 4. LPS E.coli, 0111B4, Chemicon.
(§2) An U937 cell was disseminated in a 2 ml aliquot in a 6-well microplate at 5×10^5 cell/ml, supplemented with an LPS at a final concentration of 100 or 1000 ng/ml, and then incubated for 24 hours with 5% CO2 at 37°C in the presence or absence of HA4 (100 ng/ml) . The culture supernatant was centrifuged at 3000 rpm for 5 minutes to obtain a test substance. A 1 ml aliquot of the recovered supernatant was subjected to Human Cytokine Antibody array (Raybio) using an ELISA (ENDOGEN) to detect the production of various cytokines.
To a microplate, 50 µl of a biotinylated antibody solution and 50 µl of the culture supernatant were added, and allowed to stand at room temperature for 2 hours. After washing with a washing buffer three times, 100 µl of a streptoavidin-HRP solution was added, allowed to stand at room temperature for 30 minutes, and washed with the washing buffer three times. A TMB was added, allowed to stand for at room temperature 30 minutes, and then a quencher was added to stop the reaction and the absorbance at 450 nm was measured (reference: 562 nm). The IL-6 concentration (pg/ml) was calculated based on the standard solutions measured in parallel.

U937 cell [2] = experiment: Cytokine production under LPS stimulation, cytokine antibody array; format: cell-based, human; details: LPS 100 ng/ml, HA4 100 ng/ml, 24 hours
Description: as §1, §2
A 2 ml aliquot of a blocking buffer was added to a membrane blotted with an antibody, which was then shaken for 30 minutes. The blocking buffer was removed, and a 1 ml aliquot of the culture supernatant was added and shaken at room temperature for 2 hours, washed 5 times, and then admixed with a primary antibody solution. After agitating at room temperature for 1.5 hours followed by washing 5 times, a secondary antibody solution was added and agitated overnight at 4°C. After washing 5 times, a chemiluminescence was allowed to develop and photographed by a Polaroid. The photograph was scanned to obtain its digital data which were subjected to an Image J to measure the luminescent intensity. The ratio based on the luminescent intensity of an internal standard placed in 6 positions in the membrane was calculated. In addition, a relative level (%) based on the expression level in a non-treatment group (NT) being 100 was calculated.

[3] = Cytotoxicity (general statement); details: at a dose exhibiting a biological activity of a pharmaceutical
K562 [4] = experiment: DNA chip gene expression analysis, cytokine- and chemokine-associated genes (Example 4); format: cell-based, human; details: 42°C 20 minutes then 37°C 30 minutes, HA4 10 ng/ml
Description: Experimental method: First, the K562 was incubated in Groups 1 and 2 in the RPMI medium described above. The both groups were incubated at 42°C for 20 minutes followed by 37°C for 30 minutes. The medium of Group 2 was supplemented with HA4 (10 ng/ml).
(§3) After the incubation, the medium was removed by centrifugation at 1000 rpm. The obtained cells were stored in a deep freezer at -60°C. From the cells thus stored, RNA was extracted according to a standard method. The extracted RNA was subjected to the DNA chip to analyze the gene expression. The DNA chip gene expression analysis was subtracted to DNA CHIP Research Inc. Specifically, the trade name: AceGene Human Oligo Chip 30K 1 Chip Version manufactured by DNA CHIP Research Inc. was employed.

cerebrospinal tissue = experiment: DNA array analysis of cerebrospinal tissue of EAE model animals; format: in vivo, Lewis rats; details: Day 14, intrathecal continuous administration 6 µg/day immediately after inoculation of antigen
K562 [5] = experiment: Cell viability by Rhodamine 123 staining after heat treatment; format: cell-based, human; details: 20 minutes at 43°C (heat treatment) followed by 60 minutes at 37°C, HA4 100 ng/ml
Description: In this example, effect of the inventive pharmaceutical agent on cell viability was measured using Rhodamine 123. […] Accordingly, the degree of the staining with Rhodamine 123 serves as an index of the mitochondrial activity, thus the index of the cellular activity (see, non-patent reference 2).
In this example, a K562 (referred to as human erythroleukemia cell or human erythroblastoid leukemia cell) was used. The K562 was purchased from RIKEN, Japan.
In this example relating to preparation of test substance, HA4 was prepared at 100 ng/ml. Specifically, HA4 was prepared by the method of Tawada et al. (Tawada A, Masa T, Oonuki Y, Watanabe A, Matsuzaki Y, Asari A. Large-scale preparation, purification and characterization of hyaluronan oligosaccharides from 4-mers to 52-mers. Glycobiology, 2002; 12(7):421-6) and the concentration was adjusted using a physiological saline.
First, the K562 was incubated under the condition described below. The culture medium for the K562 was an RPMI-1640 medium. In this example, the K562 was incubated in Groups 1 to 3 shown below. Each group was cultured under the condition described below. […]
The K562 after washing was inoculated at 1×10^4 cells/ml in a 96-well plate and a photograph was taken using a fluorescent microscope (Nikon) . The image was sent to anAdobe Photoshop (Adobe Systems) where the fluorescent intensity of a cell was measured.

K562 [6] = experiment: DNA chip gene expression analysis, cell viability-related genes (Example 3); format: cell-based, human; details: 42°C 20 minutes then 37°C 30 minutes, HA4 10 ng/ml
Description: First, the K562 was incubated in Groups 1 and 2 in the […] described above. The both groups were incubated at 42°C for 20 minutes followed by 37°C for 30 minutes. The medium of Group 2 was supplemented with HA4 (10 ng/ml).
as §3, with “analyze” for “analyze the”, “gene expressions.” for “gene expression.”, “by DNACHIP” for “by DNA CHIP”

[7] = test system: experimental autoimmune encephalomyelitis (EAE); experiment: EAE (multiple sclerosis model) neural symptom evaluation after intraspinal administration; format: in vivo, Lewis rats; details: for clinical score (EAE grade): Day 13 after antigen inoculation
[8] = intraspinal continuous administration immediately after inoculation, 6 µg/day, 22 Days
[9] = intraspinal single administration after onset of disease, 60 µg

Substance: tetrasaccharide hyaluronan [HA4]
- production of IL-6 (U937 cell [1]): reduction
- production of IL-1α (U937 cell [2]): reduction
- production of IL-1β (U937 cell [2]): reduction
- production of IL-6 (U937 cell [2]): reduction
- production of TGF-β (U937 cell [2]): reduction
- production of TNF-α (U937 cell [2]): reduction
- production of TNF-β (U937 cell [2]): reduction
- cytotoxicity [3]: almost or completely no cytotoxicity
- HA4(+)/HA4(-) ratio (K562 [4]; gene CCL28): 0.32
- HA4(+)/HA4(-) ratio (K562 [4]; gene IFN-γ): 0.11
- HA4(+)/HA4(-) ratio (K562 [4]; gene IFN-ω1): 0.5
- HA4(+)/HA4(-) ratio (K562 [4]; gene IL-1β): 0.36
- HA4(+)/HA4(-) ratio (K562 [4]; gene IL-5): 0.28
- HA4(+)/HA4(-) ratio (K562 [4]; gene IL-17b): 0.31
- HA4(+)/HA4(-) ratio (K562 [4]; gene IL-18RAP): 0.32
- HA4(+)/HA4(-) ratio (K562 [4]; gene Mig(CXCL9)): 0.11
- Expression level ratio (HA/physiological saline) (cerebrospinal tissue; Decoy TRAIL receptor without death domain): 2.0
- Expression level ratio (HA/physiological saline) (cerebrospinal tissue; Fibroblast growth factor receptor substrate 2): 2.3
- Expression level ratio (HA/physiological saline) (cerebrospinal tissue; Transthyretin): 0.38
- Rhodamine 123 staining performance (fluorescent intensity) (K562 [5]): inhibited such a reduction
- HAA+/- ratio (K562 [6]; gene Caspase 2): 0.27
- HAA+/- ratio (K562 [6]; gene DNAJ2): 0.34
- HAA+/- ratio (K562 [6]; gene Granzyme H): 0.38
- HAA+/- ratio (K562 [6]; gene STK17b (DARK2)): 0.09
- HAA+/- ratio (K562 [6]; gene TAF9L): 0.43
- HAA+/- ratio (K562 [6]; gene dnaj (hsp40) homolog): 2.62
- HAA+/- ratio (K562 [6]; gene pawr (Par-4)): 0.45
- clinical score (EAE grade) ([7]; intraspinal continuous administration from onset of disease, 6 µg/day, 11 Days): 1.5 ± 1.0
- clinical score (EAE grade) [7, 8]: 0.2 ± 0.41
- clinical score (EAE grade) [7, 9]: 1.8 ± 0.5
- cases developing the disease [7, 8]: 1/6
- diseased period [7, 9]: 5.0 ± 1.5 days
